We go through 2 compounds from article PMC6862209, “Deep Eutectic Solvents as New Reaction Media to Produce Alkyl-Glycosides Using Alpha-Amylase from Thermotoga maritima” (International Journal of Molecular Sciences, 2019).

Assay [1] addresses T1, Amy A (α-amylase from Thermotoga maritima) (Thermotoga maritima, UniProt Q9S5Y2).
T1 construct: gene TM_1840; heterologous expression in E. coli
T1 sequence (Q9S5Y2 27-556): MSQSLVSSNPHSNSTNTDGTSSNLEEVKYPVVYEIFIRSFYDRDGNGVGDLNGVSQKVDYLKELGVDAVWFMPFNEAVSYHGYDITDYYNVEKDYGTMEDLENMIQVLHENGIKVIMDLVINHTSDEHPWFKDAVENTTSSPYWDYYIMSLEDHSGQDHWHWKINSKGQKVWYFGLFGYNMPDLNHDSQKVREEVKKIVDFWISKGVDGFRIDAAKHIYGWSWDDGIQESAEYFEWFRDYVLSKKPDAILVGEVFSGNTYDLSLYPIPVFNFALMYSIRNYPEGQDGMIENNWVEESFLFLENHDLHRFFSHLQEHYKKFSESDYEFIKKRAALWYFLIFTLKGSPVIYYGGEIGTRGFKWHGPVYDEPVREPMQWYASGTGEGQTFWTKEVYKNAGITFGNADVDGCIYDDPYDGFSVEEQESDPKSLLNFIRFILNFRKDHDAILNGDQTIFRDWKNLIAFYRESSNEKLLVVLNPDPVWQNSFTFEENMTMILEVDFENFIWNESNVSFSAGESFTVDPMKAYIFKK
In words: HPLC of remaining maltotriose (partially purified enzyme). It counts as biochemical. The following applies: 50 mM maltotriose, 75 °C, 4 h; water:DES cosolvent series, hydrolysis to maltose and glucose.

Assay [2] has as its target T1, Amy A (α-amylase from Thermotoga maritima). In words: HPLC of methyl glycosides after glucoamylase treatment. The class given is biochemical. The conditions noted are these: acceptor in alcoholysis; donor maltotriose 50 mM, 75 °C, choline chloride:urea (1:2):water.

On to `OC[C@H]1O[C@H](O[C@H]2[C@H](O)[C@@H](O)[C@@H](O[C@H]3[C@H](O)[C@@H](O)C(O)O[C@@H]3CO)O[C@@H]2CO)[C@H](O)[C@@H](O)[C@@H]1O` (some centres unmarked) [maltotriose], for which the “HPLC of remaining maltotriose (partially purified enzyme)” value in assay [1] was “Substrate conversion was measured as the amount of maltotriose hydrolyzed to maltose and glucose”.

Consider `CO` [methanol], for which, in assay [2], the “HPLC of methyl glycosides after glucoamylase treatment” value was “Methyl-glucoside, methyl-maltoside, and interestingly, also methyl-maltotrioside were detected”.
